The values below come from publication PMC8922281, “Synthesis and In Vitro Biological Evaluation of Quinolinyl Pyrimidines Targeting Type II NADH-Dehydrogenase (NDH-2)” (ACS Infectious Diseases, 2022).

The nature of data set [1]: Cytotoxicity on the MRC-5 cell line (resazurin). The following applies: human, MRC-5SV2 cells, MRC-5SV2, 3 days. The data set is classed as cell-based. In short, it runs like this:
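MRC-5SV2 cells, about 10^4 per well in Earl's MEM with 5% FCSi, were exposed to compounds for 3 days. Viability read fluorimetrically with resazurin (ex 550, em 590 nm) as % reduction versus untreated wells, giving CC50.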
(Alamar Blue is a resazurin reagent that responds to reducing activity.)

Data set [2] has as its system P. aeruginosa (PAO1, wild-type). As to the kind of experiment: MIC on ESKAPE pathogens, P. aeruginosa wild-type. The data set is classed as cell-based. The following applies: Pseudomonas aeruginosa, PAO1, read-out: MIC Pa WT.
Data set [3] has as its system P. aeruginosa (PAO750 efflux-defective mutant, isogenic to PAO1). As to the kind of experiment: microbe, parasite or virus in culture. The class given is cell-based. The following applies: Pseudomonas aeruginosa, PAO1, read-out: MIC Pa efflux.
Data set [4] has as its system A. baumannii (ATCC 19606, wild-type). As to the kind of experiment: MIC on ESKAPE pathogens, A. baumannii. The class given is cell-based. The following applies: Acinetobacter baumannii, ATCC19606; A. baumannii ATCC 19606, wild-type; read-out: MIC Ab WT.
For data set [5], the system named is E. coli (ATCC 25922, wild-type). As to the kind of experiment: MIC on ESKAPE pathogens, E. coli wild-type. The data set is classed as cell-based. The following applies: Escherichia coli, ATCC25922, read-out: MIC Ec WT.
Data set [6] relates to S. aureus (ATCC 29213, wild-type). As to the kind of experiment: MIC on ESKAPE pathogens, S. aureus. The data set is classed as cell-based. The following applies: Staphylococcus aureus, ATCC29213.
The subject of data set [7] is E. coli (ΔtolC efflux-defective mutant, isogenic to ATCC 25922). As to the kind of experiment: microbe, parasite or virus in culture. The class given is cell-based. The following applies: Escherichia coli, ATCC25922, read-out: MIC Ec ΔtolC.
Data set [8] concerns M. tuberculosis strain H37Rv (ATCC 25618). Description: MIC on M. tuberculosis by resazurin reduction microplate assay (REMA). The following applies: Mycobacterium tuberculosis, M. tuberculosis H37Rv, read-out: MIC Mtb. The class given is cell-based.
The target in data set [9] is T1, MtNDH-2 (Mycobacterium tuberculosis, UniProt P95160). More on the design: method as in PMID 24900541. The following applies: reported earlier; cited from earlier work.
Data set [10] deals with MsNDH-2 (Mycolicibacterium smegmatis, UniProt A0QYD6). As to the kind of experiment: Inhibition of MsNDH-2 (NADH oxidation with menadione, absorbance at 340 nm). The data set is classed as biochemical, M. smegmatis.
Data set [11] concerns K. pneumonia (ATCC 13833, wild-type). Description: MIC on ESKAPE pathogens, K. pneumoniae.
The target of data set [12] is T1, MtNDH-2. As to the kind of experiment: biochemical. More on the design: species or system M. tuberculosis. The following applies: MtNDH-2 IC50.
Data set [13] relates to E. coli (D22, lpxC mutant, drug-hypersensitive). Description: microbe, parasite or virus in culture. The data set is classed as cell-based. The following applies: Escherichia coli, read-out: MIC Ec D22.

Converted amounts (≈) assume the structure as drawn. “And” between values parts separate entries of the source, which are not always exact repeats. Equal values may be shown once. Read-outs that look alike come from different tables or passages of the source.

T1 sequence (P95160 2-463, added parts left off): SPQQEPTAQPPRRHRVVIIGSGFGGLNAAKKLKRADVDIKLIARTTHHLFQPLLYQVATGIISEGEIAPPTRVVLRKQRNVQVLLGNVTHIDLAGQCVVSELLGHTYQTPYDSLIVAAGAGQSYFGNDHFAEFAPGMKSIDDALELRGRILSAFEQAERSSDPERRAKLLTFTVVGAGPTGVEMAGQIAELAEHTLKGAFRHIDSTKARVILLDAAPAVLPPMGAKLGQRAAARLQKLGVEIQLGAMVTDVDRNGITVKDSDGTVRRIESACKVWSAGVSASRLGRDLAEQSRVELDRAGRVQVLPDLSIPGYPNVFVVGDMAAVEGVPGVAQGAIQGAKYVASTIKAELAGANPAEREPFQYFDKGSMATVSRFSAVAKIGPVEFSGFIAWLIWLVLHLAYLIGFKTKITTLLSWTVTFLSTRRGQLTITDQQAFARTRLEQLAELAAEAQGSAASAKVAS
MsNDH-2, sequence (A0QYD6 1-457): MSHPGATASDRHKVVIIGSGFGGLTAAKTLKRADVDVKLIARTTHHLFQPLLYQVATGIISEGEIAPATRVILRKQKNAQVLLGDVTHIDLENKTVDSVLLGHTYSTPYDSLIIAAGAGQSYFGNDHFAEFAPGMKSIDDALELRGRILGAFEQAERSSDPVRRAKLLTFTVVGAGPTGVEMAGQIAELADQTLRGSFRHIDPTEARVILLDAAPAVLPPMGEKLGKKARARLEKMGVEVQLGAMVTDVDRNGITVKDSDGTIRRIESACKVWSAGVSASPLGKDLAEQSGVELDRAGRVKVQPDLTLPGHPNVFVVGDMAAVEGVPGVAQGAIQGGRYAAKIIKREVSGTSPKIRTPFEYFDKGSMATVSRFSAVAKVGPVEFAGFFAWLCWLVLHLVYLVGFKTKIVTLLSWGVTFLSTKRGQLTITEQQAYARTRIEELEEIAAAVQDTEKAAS

A word on the IC50: it is the concentration that inhibits the measured activity by half. As to `Cc1cccc(-c2cc(Nc3ccc4nc(-c5ccc(F)cc5)cc(N)c4c3)nc(N)n2)c1` [Compound 1, N^6-(2-Amino-6-m-tolylpyrimidin-4-yl)-2-(4-fluorophenyl)quinoline-4,6-diamine, reference compound], the figures for the IC50 at 3 days in [1] (resazurin) and in data set [1] (value in parentheses) were 1300 nM and 0.6 µg/mL, respectively. Moreover, the MIC in [2] is over 128 µg/mL; in data set [3], 128 µg/mL (≈ 293 µM); in [4], 64 µg/mL (≈ 147 µM); in data set [5] it was over 128 µg/mL; in data set [6] it was 1 µg/mL (≈ 2.29 µM); in data set [7], 8 µg/mL (≈ 18.3 µM). In addition, the results for the MIC in data set [8] and in [13] were 2.6 µg/mL (≈ 5.96 µM) and 4 µg/mL (≈ 9.16 µM), respectively. In addition, the 50% inhibitory concentration (IC50) was 96 nM in data set [9]; 1600 nM in [10] (95% confidence interval in parentheses, 50 nM enzyme, 50 μM menadione, >100: no significant inhibition at 100 μM); 1600 nM in data set [10] (same IC50 given in μg/mL to assist comparisons with MICs); 26 nM and 22.9 nM in data set [12]. For the same compound, the “MIC Kp WT” value in data set [11] was over 128 µg/mL.
